According to PubChem BioAssay (NCI):
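Grown in 96-well plates, cells were treated for 48 hours with each compound at five concentrations. Insufficient inhibition: endpoint recorded as highest concentration tested. TGI is the concentration that stops growth completely.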

Experiments:
Test in all cases: inhibition of tumour cell growth, NCI panel, 48 h
ACHN renal = tested on: ACHN renal
COLO 205 colon = tested on: COLO 205 colon
HCC-2998 colon = tested on: HCC-2998 colon
HCT-116 colon = tested on: HCT-116 colon
HCT-15 colon = tested on: HCT-15 colon
HOP-62 NSCLC = tested on: HOP-62 NSCLC
K-562 leukemia = tested on: K-562 leukemia
KM12 colon = tested on: KM12 colon
MALME-3M melanoma = tested on: MALME-3M melanoma
MDA-N = tested on: MDA-N
NCI-H460 lung = tested on: NCI-H460 lung
OVCAR-5 ovarian = tested on: OVCAR-5 ovarian
OVCAR-8 ovarian = tested on: OVCAR-8 ovarian
PC-3 prostate = tested on: PC-3 prostate
SF-268 CNS = tested on: SF-268 CNS
SK-MEL-2 melanoma = tested on: SK-MEL-2 melanoma
SR leukemia = tested on: SR leukemia
SW-620 colon = tested on: SW-620 colon
UACC-257 melanoma = tested on: UACC-257 melanoma
MCF7 breast = tested on: MCF7 breast

Structure (SMILES) | TGI (ACHN renal) [µM] | TGI (COLO 205 colon) [µM] | TGI (HCC-2998 colon) [µM] | TGI (HCT-116 colon) [µM] | TGI (HCT-15 colon) [µM] | TGI (HOP-62 NSCLC) [µM] | TGI (K-562 leukemia) [µM] | TGI (KM12 colon) [µM] | TGI (MALME-3M melanoma) [µM] | TGI (MDA-N) [µM] | TGI (NCI-H460 lung) [µM] | TGI (OVCAR-5 ovarian) [µM] | TGI (OVCAR-8 ovarian) [µM] | TGI (PC-3 prostate) [µM] | TGI (SF-268 CNS) [µM] | TGI (SK-MEL-2 melanoma) [µM] | TGI (SR leukemia) [µM] | TGI (SW-620 colon) [µM] | TGI (UACC-257 melanoma) [µM] | TGI (MCF7 breast) [µM]
CC(=O)ON(C(C)=O)c1ccc(-c2nc3ccccc3s2)cc1 | 50.4 | > 53.7 | 41.9 | > 54.7 | > 68.4 | > 55.8 | > 100 | 33.2 | 30.5 | > 77 | > 100 | 98.6 | > 58 | > 100 | > 100 | 67.1 | > 100 | > 59.9 | > 83.5 | –
CC(C)(C)OC(=O)NCCCCC(N)C(N)=O (centres undefined) | > 100 | > 100 | > 100 | > 100 | > 100 | > 100 | > 100 | > 100 | > 100 | > 100 | > 100 | > 100 | > 100 | > 100 | > 100 | > 100 | – | > 100 | > 100 | > 100
N#CN=C(N)c1sc2nc3c(c(-c4ccc(Br)cc4)c2c1N)CCCC3 | 57 | 44.8 | 60.3 | 33.1 | 44.7 | – | > 100 | 59.7 | – | 34.4 | > 100 | > 100 | 86.8 | 52.7 | > 100 | 32.8 | 50.3 | > 100 | > 100 | > 100
CC(C)(C)c1cc(CC2C(=O)c3ccccc3C2=O)cc(C(C)(C)C)c1O | > 100 | 30.7 | – | 14.1 | 14.8 | 9.08 | 13.1 | 19.1 | – | > 100 | 43.3 | 57.6 | 14.7 | 10.3 | 17.1 | 10.8 | 16.6 | 17.1 | 15.4 | > 100
CC(=O)OC1=c2ccccc2=C(O)C2C1C=NN2C(C)=O (centres undefined) | > 100 | > 100 | > 100 | > 100 | > 100 | > 100 | > 100 | > 100 | > 100 | > 100 | > 100 | > 100 | > 100 | > 100 | > 100 | > 100 | – | > 100 | > 100 | > 100
CC1(C)[C@H](C(=O)O)N2C(=O)[C@@H](NS(=O)(=O)c3ccc([N+](=O)[O-])cc3)[C@H]2S1(=O)=O | > 100 | > 100 | > 100 | > 100 | > 100 | > 100 | > 100 | > 100 | > 100 | > 100 | > 100 | > 100 | > 100 | > 100 | > 100 | > 100 | – | > 100 | > 100 | > 100
C=CCn1c(=O)c2ccccc2[n+]2c(C)c(C(=O)OCC)sc12 | > 100 | > 100 | > 100 | > 100 | > 100 | > 100 | > 100 | > 100 | – | > 100 | > 100 | > 100 | > 100 | > 100 | > 100 | > 100 | > 100 | > 100 | > 100 | > 100
O=C(/C=C1\N=C(c2ccccc2)N(c2nc3ccc(Sc4ccccc4)cc3[nH]2)C1=O)/C=C/c1ccccc1 | > 100 | 30.6 | 32.5 | > 100 | > 100 | > 100 | > 100 | > 100 | > 100 | 33.6 | > 100 | > 100 | > 100 | > 100 | > 100 | 41.5 | – | > 100 | > 100 | > 100
NNC(=O)CSc1nc2ccc(I)cc2c(=O)n1Cc1ccccc1 | 40.2 | 53.2 | 55.6 | 43.2 | > 100 | 43.9 | 88 | 58.7 | – | > 100 | 44.7 | 40.9 | > 100 | 69.3 | 41.3 | 46 | 61.2 | > 100 | 44 | 59.4
O=S(=O)(O)c1c(Cl)cc(O)c2ncccc12 | > 100 | > 100 | > 100 | > 100 | > 100 | > 100 | > 100 | > 100 | – | > 100 | > 100 | > 100 | > 100 | > 100 | – | > 100 | > 100 | > 100 | > 100 | > 100
O=C(Nc1nnc(-c2ccccc2)o1)C(SC(=S)N1CCCCC1)c1ccccc1 (centres undefined) | 75.7 | > 100 | – | 32.1 | 29.1 | 92.1 | > 100 | > 100 | > 100 | 69.9 | 34.6 | 82.9 | > 100 | 96.2 | – | 51.1 | > 100 | > 100 | > 100 | > 100
NCCSc1nc2ccccc2s1 | > 100 | > 100 | – | > 100 | > 100 | 62.3 | > 100 | > 100 | > 100 | > 100 | > 100 | > 100 | > 100 | > 100 | 86 | 82.2 | 79.5 | > 100 | > 100 | 98.1
